Columns and labels:
Assay type in all cases: in vitro ADME
Details in all cases: colchicine 25 µM, NADPH 1 mM, CYP 2 pmol/mL, PBS pH 7.4; mean ± SD (n = 2)
CYP1B1 = molecular target: T1, CYP1B1 (Homo sapiens, UniProt Q16678); assay: Colchicine metabolism by cDNA-expressed recombinant CYP1B1
T1 construct: purchased Research Institute for Liver Diseases Co., Ltd. (Shanghai, China)
T1 sequence (Q16678 1-543): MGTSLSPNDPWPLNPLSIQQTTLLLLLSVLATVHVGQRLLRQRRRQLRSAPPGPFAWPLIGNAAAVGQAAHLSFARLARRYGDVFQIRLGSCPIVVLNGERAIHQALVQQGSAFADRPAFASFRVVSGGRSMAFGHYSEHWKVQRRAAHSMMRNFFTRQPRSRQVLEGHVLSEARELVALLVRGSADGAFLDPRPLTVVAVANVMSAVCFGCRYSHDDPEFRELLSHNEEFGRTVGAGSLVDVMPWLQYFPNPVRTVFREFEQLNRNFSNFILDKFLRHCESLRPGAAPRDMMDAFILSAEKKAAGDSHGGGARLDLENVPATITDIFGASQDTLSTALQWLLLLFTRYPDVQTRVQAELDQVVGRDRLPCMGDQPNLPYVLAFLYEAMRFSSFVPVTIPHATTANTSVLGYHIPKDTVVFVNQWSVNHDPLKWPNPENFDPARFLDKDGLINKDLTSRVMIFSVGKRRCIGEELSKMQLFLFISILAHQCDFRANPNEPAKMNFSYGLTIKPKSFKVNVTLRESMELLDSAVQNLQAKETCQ
Procedure: (§1) Pre-cooled acetonitrile was used to terminate the reaction, and then centrifugation (4 °C, 12,000 rpm, 20 min) was performed to obtain the sample.
(§2) All samples were analyzed as shown in [17] and are briefly described in Supporting Information. […]
(§3) Supplementary materials and methods
(§4) Reference numbers refer to the main text list
(§5) UHPLC‐Q exactive plus MS Analysis
(§6) All samples were analyzed on a liquid chromatography system including a Vanquish autosampler, Vanquish detector, Vanquish pump (Thremo Fisher Scientific, Santa Clara, CA). Samples were separated on an ACQUITY UPLC HSS T3 column (2.1×100 mm, […], Waters, USA). The injection volume: 5 μL, and the flow rate was 0.3 mL/min.
(§7) Phase A was H2O containing 0.01% formic acid, and phase B was acetonitrile containing 0.01% formic acid. The elution gradient was as follows: 0‐12 mi n, 2‐98% B; 12‐14 min, 2% A; 14‐16 min, 98% A. Other parameters are as follows: column temperature 45 ℃ , flow rate of collision gas and dry gas 9 L/min. Capillary voltage 3.5 kV, temperature 350 ℃ , atomizer pressure 35 psi. Vanquish UHPLC‐Q Exactive plus MS (Thermo Fisher, USA) was collected in both positive modes, operating in full scan mode with 60‐900 m/z. […]

CYP2B6 = molecular target: T2, CYP2B6 (Homo sapiens, UniProt P20813); assay: Colchicine metabolism by cDNA-expressed recombinant CYP2B6
T2 construct: purchased Research Institute for Liver Diseases Co., Ltd. (Shanghai, China)
T2 sequence (P20813 1-491): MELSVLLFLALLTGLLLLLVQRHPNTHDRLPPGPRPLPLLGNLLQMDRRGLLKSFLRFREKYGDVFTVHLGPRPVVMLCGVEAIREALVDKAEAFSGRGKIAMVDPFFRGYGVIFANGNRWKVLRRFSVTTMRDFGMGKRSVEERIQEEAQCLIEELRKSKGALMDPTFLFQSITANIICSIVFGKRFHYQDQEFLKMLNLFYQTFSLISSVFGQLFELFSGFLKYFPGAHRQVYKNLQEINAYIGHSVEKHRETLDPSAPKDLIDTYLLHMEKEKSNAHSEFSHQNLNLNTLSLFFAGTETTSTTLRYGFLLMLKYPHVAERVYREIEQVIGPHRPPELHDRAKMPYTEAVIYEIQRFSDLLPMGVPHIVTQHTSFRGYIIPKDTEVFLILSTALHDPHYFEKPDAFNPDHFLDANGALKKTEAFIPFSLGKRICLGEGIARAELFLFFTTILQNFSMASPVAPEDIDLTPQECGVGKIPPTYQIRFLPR
Procedure: as §1, §2, §3, §4, §5, §6, §7

CYP2C8 = molecular target: T3, CYP2C8 (Homo sapiens, UniProt P10632); assay: Colchicine metabolism by cDNA-expressed recombinant CYP2C8
T3 construct: purchased Research Institute for Liver Diseases Co., Ltd. (Shanghai, China)
T3 sequence (P10632 1-490): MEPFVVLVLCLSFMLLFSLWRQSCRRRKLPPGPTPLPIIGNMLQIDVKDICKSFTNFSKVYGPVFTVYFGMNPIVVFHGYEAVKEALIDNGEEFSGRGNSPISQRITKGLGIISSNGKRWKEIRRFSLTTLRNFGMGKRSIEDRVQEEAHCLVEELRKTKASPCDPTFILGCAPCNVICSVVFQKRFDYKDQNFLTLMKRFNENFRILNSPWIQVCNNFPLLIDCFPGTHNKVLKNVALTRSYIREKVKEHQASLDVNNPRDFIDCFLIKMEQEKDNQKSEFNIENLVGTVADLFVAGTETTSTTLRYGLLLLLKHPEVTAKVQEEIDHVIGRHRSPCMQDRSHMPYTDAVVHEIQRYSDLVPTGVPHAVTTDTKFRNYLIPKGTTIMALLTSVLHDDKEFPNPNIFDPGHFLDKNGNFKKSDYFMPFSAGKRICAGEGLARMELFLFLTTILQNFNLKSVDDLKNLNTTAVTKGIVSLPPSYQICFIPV
Procedure: as §1, §2, §3, §4, §5, §6, §7

CYP2E1 = molecular target: T4, CYP2E1 (Homo sapiens, UniProt P05181); assay: Colchicine metabolism by cDNA-expressed recombinant CYP2E1
T4 construct: purchased Research Institute for Liver Diseases Co., Ltd. (Shanghai, China)
T4 sequence (P05181 whole entry): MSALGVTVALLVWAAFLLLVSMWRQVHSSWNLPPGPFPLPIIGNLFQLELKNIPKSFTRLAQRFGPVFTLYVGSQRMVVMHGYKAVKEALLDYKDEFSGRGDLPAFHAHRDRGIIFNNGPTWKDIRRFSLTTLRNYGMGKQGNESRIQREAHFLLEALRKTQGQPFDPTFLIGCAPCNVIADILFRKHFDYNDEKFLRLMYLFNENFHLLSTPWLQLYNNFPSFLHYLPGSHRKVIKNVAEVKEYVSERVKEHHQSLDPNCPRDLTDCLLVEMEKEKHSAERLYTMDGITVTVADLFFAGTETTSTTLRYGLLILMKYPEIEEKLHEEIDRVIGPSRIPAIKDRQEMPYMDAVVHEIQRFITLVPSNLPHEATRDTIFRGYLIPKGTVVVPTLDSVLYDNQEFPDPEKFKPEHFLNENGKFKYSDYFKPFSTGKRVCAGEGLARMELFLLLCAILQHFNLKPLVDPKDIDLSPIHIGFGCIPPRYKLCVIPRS
Procedure: as §1, §2, §3, §4, §5, §6, §7

CYP2A6 = molecular target: T5, CYP2A6 (Homo sapiens, UniProt P11509); assay: Colchicine metabolism by cDNA-expressed recombinant CYP2A6
T5 construct: purchased Research Institute for Liver Diseases Co., Ltd. (Shanghai, China)
T5 sequence (P11509 whole entry): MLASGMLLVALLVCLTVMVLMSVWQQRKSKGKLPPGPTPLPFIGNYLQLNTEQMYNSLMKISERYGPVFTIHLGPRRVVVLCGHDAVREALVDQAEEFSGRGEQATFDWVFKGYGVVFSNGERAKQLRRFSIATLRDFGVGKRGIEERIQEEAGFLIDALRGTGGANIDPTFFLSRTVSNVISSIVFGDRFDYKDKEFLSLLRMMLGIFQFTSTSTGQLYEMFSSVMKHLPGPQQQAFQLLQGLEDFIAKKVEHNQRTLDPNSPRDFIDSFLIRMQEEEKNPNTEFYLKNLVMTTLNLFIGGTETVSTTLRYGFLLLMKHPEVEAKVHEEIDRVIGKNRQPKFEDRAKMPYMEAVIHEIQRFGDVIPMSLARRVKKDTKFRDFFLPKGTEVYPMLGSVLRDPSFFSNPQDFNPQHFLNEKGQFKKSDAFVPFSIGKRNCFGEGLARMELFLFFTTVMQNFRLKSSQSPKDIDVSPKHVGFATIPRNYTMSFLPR
Procedure: as §1, §2, §3, §4, §5, §6, §7

CYP2C9 = molecular target: T6, CYP2C9 (Homo sapiens, UniProt P11712); assay: Colchicine metabolism by cDNA-expressed recombinant CYP2C9
T6 construct: purchased Research Institute for Liver Diseases Co., Ltd. (Shanghai, China)
T6 sequence (P11712 whole entry): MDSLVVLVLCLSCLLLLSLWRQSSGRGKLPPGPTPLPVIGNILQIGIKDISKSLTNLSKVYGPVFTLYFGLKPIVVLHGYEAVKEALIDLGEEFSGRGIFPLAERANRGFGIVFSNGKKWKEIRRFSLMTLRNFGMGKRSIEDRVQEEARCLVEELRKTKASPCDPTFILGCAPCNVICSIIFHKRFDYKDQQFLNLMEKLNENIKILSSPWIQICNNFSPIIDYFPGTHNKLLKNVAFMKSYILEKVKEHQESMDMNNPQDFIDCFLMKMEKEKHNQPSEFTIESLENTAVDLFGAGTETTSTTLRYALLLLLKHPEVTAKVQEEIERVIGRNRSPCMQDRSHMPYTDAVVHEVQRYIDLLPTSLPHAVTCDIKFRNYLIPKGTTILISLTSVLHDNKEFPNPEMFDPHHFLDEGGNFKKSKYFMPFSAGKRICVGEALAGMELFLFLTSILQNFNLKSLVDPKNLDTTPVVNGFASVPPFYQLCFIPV
Procedure: as §1, §2, §3, §4, §5, §6, §7

CYP3A5 = molecular target: T7, CYP3A5 (Homo sapiens, UniProt P20815); assay: Colchicine metabolism by cDNA-expressed recombinant CYP3A5
T7 construct: purchased Research Institute for Liver Diseases Co., Ltd. (Shanghai, China)
T7 sequence (P20815 whole entry): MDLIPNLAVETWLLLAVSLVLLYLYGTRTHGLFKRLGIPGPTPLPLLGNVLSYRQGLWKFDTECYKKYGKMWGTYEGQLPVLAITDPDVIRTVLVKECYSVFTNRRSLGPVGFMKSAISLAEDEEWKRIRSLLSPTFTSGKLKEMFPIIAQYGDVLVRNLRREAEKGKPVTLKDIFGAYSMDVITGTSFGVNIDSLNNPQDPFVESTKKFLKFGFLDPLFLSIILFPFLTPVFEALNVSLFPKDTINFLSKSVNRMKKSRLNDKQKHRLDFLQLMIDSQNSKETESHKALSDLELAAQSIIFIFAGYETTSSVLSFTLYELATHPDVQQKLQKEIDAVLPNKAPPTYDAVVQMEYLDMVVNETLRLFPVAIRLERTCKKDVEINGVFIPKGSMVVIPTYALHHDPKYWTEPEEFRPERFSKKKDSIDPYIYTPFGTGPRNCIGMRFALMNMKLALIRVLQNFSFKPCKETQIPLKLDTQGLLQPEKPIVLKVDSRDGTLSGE
Procedure: as §1, §2, §3, §4, §5, §6, §7

CYP1A1 = molecular target: T8, CYP1A1 (Homo sapiens, UniProt P04798); assay: Colchicine metabolism by cDNA-expressed recombinant CYP1A1
T8 construct: purchased Research Institute for Liver Diseases Co., Ltd. (Shanghai, China)
T8 sequence (P04798 1-512): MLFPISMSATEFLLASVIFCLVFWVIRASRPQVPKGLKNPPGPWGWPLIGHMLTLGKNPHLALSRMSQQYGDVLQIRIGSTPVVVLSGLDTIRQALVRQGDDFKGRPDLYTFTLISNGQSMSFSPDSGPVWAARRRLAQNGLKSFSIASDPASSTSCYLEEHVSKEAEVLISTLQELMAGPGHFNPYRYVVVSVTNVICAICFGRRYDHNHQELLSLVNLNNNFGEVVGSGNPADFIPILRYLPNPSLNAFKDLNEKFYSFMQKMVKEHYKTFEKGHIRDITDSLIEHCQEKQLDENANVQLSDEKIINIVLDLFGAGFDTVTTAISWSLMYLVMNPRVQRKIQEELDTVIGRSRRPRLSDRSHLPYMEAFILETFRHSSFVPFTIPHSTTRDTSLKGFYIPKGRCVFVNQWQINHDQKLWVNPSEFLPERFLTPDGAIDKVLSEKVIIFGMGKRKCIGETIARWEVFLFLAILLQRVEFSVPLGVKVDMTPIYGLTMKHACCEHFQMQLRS
Procedure: as §1, §2, §3, §4, §5, §6, §7

Row | Compound | peak area of the metabolite after incubation with CYP1B1 as a percentage of the total peak areas from all the CYPs (CYP1B1) [%] | peak area of the metabolite after incubation with CYP2B6 as a percentage of the total peak areas from all the CYPs (CYP2B6) [%] | peak area of the metabolite after incubation with CYP2C8 as a percentage of the total peak areas from all the CYPs (CYP2C8) [%] | peak area of the metabolite after incubation with CYP2E1 as a percentage of the total peak areas from all the CYPs (CYP2E1) [%] | peak area of the metabolite after incubation with CYP2A6 as a percentage of the total peak areas from all the CYPs (CYP2A6) [%] | peak area of the metabolite after incubation with CYP2C9 as a percentage of the total peak areas from all the CYPs (CYP2C9) [%] | peak area of the metabolite after incubation with CYP3A5 as a percentage of the total peak areas from all the CYPs (CYP3A5) [%] | peak area of the metabolite after incubation with CYP1A1 as a percentage of the total peak areas from all the CYPs (CYP1A1) [%]
1 | COc1cc2c(c(OC)c1O)-c1ccc(OC)c(=O)cc1[C@@H](NC(C)=O)CC2 [M1] | 4.56 ± 1.73 | 6.90 ± 0.52 | 6.82 ± 0.03 | 4.77 ± 2.02 | 5.39 ± 0.90 | 13.68 ± 5.29 | 9.93 ± 0.49 | 3.91 ± 3.16
2 | COc1c(O)cc2c(c1OC)-c1ccc(OC)c(=O)cc1[C@@H](NC(C)=O)C=C2 [M5] | 7.27 ± 2.20 | 7.86 ± 0.00 | 7.37 ± 0.00 | 7.32 ± 0.00 | 7.26 ± 8.64 | 7.59 ± 0.00 | 8.12 ± 0.00 | 6.87 ± 0.00
3 | COc1c(O)cc2c(c1O)-c1ccc(OC)c(=O)cc1[C@@H](NC(C)=O)CC2 [M8] | 7.48 ± 2.17 | 10.13 ± 3.38 | 8.61 ± 4.55 | 6.78 ± 0.72 | 4.23 ± 0.62 | 6.12 ± 3.22 | 11.08 ± 1.09 | 9.32 ± 5.12
4 | COc1cc2c(c(O)c1OC)-c1ccc(OC)c(=O)cc1[C@@H](NC(C)=O)CC2 [M2] | 2.53 ± 0.65 | 4.42 ± 0.21 | 3.69 ± 0.02 | 3.69 ± 0.51 | 2.64 ± 0.16 | 5.57 ± 1.45 | 12.14 ± 0.15 | 4.51 ± 2.24
5 | COc1cc2c(c(OC)c1OC)-c1ccc(O)c(=O)cc1[C@@H](NC(C)=O)CC2 [M4] | 7.00 ± 0.10 | 7.77 ± 0.57 | 7.21 ± 0.40 | 6.93 ± 0.40 | 6.66 ± 2.12 | 6.44 ± 0.02 | 7.36 ± 0.44 | 6.99 ± 0.30
6 | COc1cc2c(c(OC)c1OC)-c1ccc(OC)c(=O)cc1C=CC2 [M6] | 7.14 ± 0.77 | 9.86 ± 0.58 | 6.90 ± 1.01 | 8.09 ± 0.37 | 8.25 ± 0.69 | 7.33 ± 0.35 | 8.06 ± 0.09 | 8.78 ± 1.10
